# Data taken from patent US20240148821A1, “PHARMACEUTICAL USE OF CYCLIC PEPTIDE COMPOUND” (CHUGAI SEIYAKU KABUSHIKI KAISHA, priority 2021, published 2024).
# pIC50: −log10 of the molar value. Numbered stars: 1 amine (or outer) side, 2 acyl side, 3 side chain; on linkers, the order of the positions; unused ones are H or OH. Bridge positions count the residues as written; N and C are the ends. Square brackets hold non-standard residues; d marks the D form. Peptide text beside a SMILES is read from it. * marks the point of attachment. hPhe(3,5-F2-4-CF3) = N[C@@H](CCc1cc(F)c(C(F)(F)F)c(F)c1)C(=O)O; hPhe(3-Cl-4-CF3) = N[C@@H](CCc1ccc(C(F)(F)F)c(Cl)c1)C(=O)O; hPhe(3-F,4-CF3) = N[C@@H](CCc1ccc(C(F)(F)F)c(F)c1)C(=O)O; NEtPhe(4-CF3) = CCN[C@@H](Cc1ccc(C(F)(F)F)cc1)C(=O)O; NMePhe(4-CF3) = CN[C@@H](Cc1ccc(C(F)(F)F)cc1)C(=O)O; 3Oxa8azabicyclo(3.2.1)octane = C1CC2COCC1N2*; NEtPhe(4-Me) = CCN[C@@H](Cc1ccc(C)cc1)C(=O)O; NMePhe(4-Cl) = CN[C@@H](Cc1ccc(Cl)cc1)C(=O)O; NMePhe(4-Me) = CN[C@@H](Cc1ccc(C)cc1)C(=O)O; NMeMet(O2) = CN[C@@H](CCS(C)(=O)=O)C(=O)O; NMedβ3hAla = C[C@H](CC(=O)[*:2])N(C)[*:1]; NMeGly(cPent) = CN[C@H](C(=O)O)C1CCCC1; NMeGly(cBu) = CN[C@H](C(=O)O)C1CCC1; NMeCha = CN[C@@H](CC1CCCCC1)C(=O)O; Hyp = O=C(O)[C@@H]1C[C@@H](O)CN1; NMeChg = CN[C@H](C(=O)O)C1CCCCC1; N(CH2CH2)2CF2 = FC1(F)CCN(*)CC1; NMeD = CN[C@@H](CC(=O)O)C(=O)O; NMeL = CN[C@@H](CC(C)C)C(=O)O; NMeNva = CCC[C@H](NC)C(=O)O; NMeV = CN[C@H](C(=O)O)C(C)C; NMeC = CN[C@@H](CS)C(=O)O; NPhGly = O=C(O)CNc1ccccc1; NMeA = CN[C@@H](C)C(=O)O; NMeAib = CNC(C)(C)C(=O)O; Piperidide = C1CCN(*)CC1; Pyrrolidide = C1CCN(*)C1; Ac5c = NC1(C(=O)O)CCCC1; Aze = O=C(O)[C@@H]1CCN1; Sar = CNCC(=O)O
# Tests used:
# [1] = test system: Human pancreatic cancer cell line AsPC-1 (G12D mutation Kras); experiment: AsPC-1 cell growth inhibition (AsPC-1 CGI); type: cell-based; settings: read-out: AsPC-1 cell growth inhibition, 50% growth inhibitory concentration (IC50 value); 96 hours, CellTiter-Glo, values classified in ranges
# [2] = target: protein-protein interaction between Kras and SOS1 (biotin-tagged human Kras loaded with GDP, His-tagged human SOS1) (Homo sapiens (Human), UniProt P01116, G12D); experiment: Protein-protein interaction inhibition between Kras and SOS1 (KrasG12D-SOS PPI) using AlphaScreen; type: biochemical; settings: AlphaScreen; biotin-tagged human Kras loaded with GDP, His-tagged human SOS1; read-out: KRAS G12D-SOS PPI IC50;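 further: kras produced in E. coli, Ni-coupled donor beads and streptavidin acceptor beads, excitation 680 nm with emission detected at 520–620 nm via singlet oxygen transfer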
Structure (SMILES),pIC50 [1],pIC50 [2]
CC[C@H](C)[C@@H]1NC(=O)[C@H](C)N(C)C(=O)C[C@@H](C(=O)N2CCCCC2)N(C)C(=O)[C@H](C2CCC2)N(C)C(=O)C(C)(C)N(C)C(=O)CN(c2ccccc2)C(=O)[C@H](CCc2ccc(C(F)(F)F)c(Cl)c2)NC(=O)CN(C)C(=O)[C@H](CC2CCCCC2)N(C)C(=O)CN(C)C(=O)CN(C)C1=O [Compound 2150] ([NMeA]I[Sar][Sar][NMeCha][Sar][hPhe(3-Cl-4-CF3)][NPhGly][NMeAib][NMeGly(cBu)][NMeD]-Piperidide; lactam N-11),< 6.30,8.24
CC[C@H](C)[C@@H]1NC(=O)[C@H](CC(C)C)N(C)C(=O)C[C@@H](C(=O)N2CCCCC2)N(C)C(=O)[C@H](C(C)C)N(C)C(=O)[C@@H](C)NC(=O)[C@@H]2CCCN2C(=O)[C@H](CCc2ccc(C(F)(F)F)c(Cl)c2)NC(=O)CN(C)C(=O)[C@H](CC2CCCCC2)N(C)C(=O)[C@@H]2CCN2C(=O)[C@H](C)N(C)C1=O [Compound 1174] ([NMeL]I[NMeA][Aze][NMeCha][Sar][hPhe(3-Cl-4-CF3)]P[dA][NMeV][NMeD]-Piperidide; lactam N-11),< 6.30,7.21
"CC[C@H](C)[C@@H]1NC(=O)[C@H](CC(C)C)N(C)C(=O)C[C@@H](C(=O)N2CCCCC2)N(C)C(=O)[C@H](C(C)C)N(C)C(=O)C2(CCCC2)NC(=O)[C@@H]2CCCN2C(=O)[C@H](CCc2ccc(C(F)(F)F)c(F)c2)NC(=O)CN(C)C(=O)[C@H](CC2CCCCC2)N(C)C(=O)CN(C)C(=O)[C@@H]2CCN2C1=O [Compound 139] ([NMeL]I[Aze][Sar][NMeCha][Sar][hPhe(3-F,4-CF3)]P[Ac5c][NMeV][NMeD]-Piperidide; lactam N-11)",< 6.30,8.08
CC(C)C[C@H]1C(=O)N[C@@H](C)C(=O)N(C)[C@@H](C)C(=O)N2CC[C@H]2C(=O)N(C)[C@@H](CC2CCCCC2)C(=O)N(C)CC(=O)N[C@@H](CCc2ccc(C(F)(F)F)c(Cl)c2)C(=O)N2CCC[C@H]2C(=O)NC2(CCCC2)C(=O)N(C)[C@@H](C(C)C)C(=O)N(C)[C@H](C(=O)N2CCCCC2)CC(=O)N1C [Compound 1780] ([NMeL]A[NMeA][Aze][NMeCha][Sar][hPhe(3-Cl-4-CF3)]P[Ac5c][NMeV][NMeD]-Piperidide; lactam N-11),< 6.30,6.92
CC[C@H](C)[C@@H]1NC(=O)[C@H](CC(C)C)N(C)C(=O)C[C@@H](C(=O)N2CCCC2)N(C)C(=O)[C@H](C2CCCC2)N(C)C(=O)C2(CCCC2)NC(=O)[C@@H]2CCCN2C(=O)[C@H](CCc2ccc(C(F)(F)F)c(Cl)c2)NC(=O)CN(C)C(=O)[C@H](Cc2ccc(C(F)(F)F)cc2)N(C)C(=O)[C@@H]2CCN2C(=O)[C@H](C)N(C)C1=O [Compound 589] ([NMeL]I[NMeA][Aze][NMePhe(4-CF3)][Sar][hPhe(3-Cl-4-CF3)]P[Ac5c][NMeGly(cPent)][NMeD]-Pyrrolidide; lactam N-11),≥ 7.70,9.31
"CC[C@H](C)[C@@H]1NC(=O)[C@H](CC(C)C)N(C)C(=O)C[C@@H](C)N(C)C(=O)[C@H](CC(C)C)NC(=O)C(C)(C)N(C)C(=O)[C@H]([C@@H](C)CC)NC(=O)[C@H](CCc2ccc(C(F)(F)F)c(F)c2)NC(=O)CN(C)C(=O)[C@H](Cc2ccc(Cl)cc2)N(C)C(=O)CN(C)C(=O)CN(C)C1=O [Compound 332] (cyclo(I[NMeAib]L[NMedβ3hAla][NMeL]I[Sar][Sar][NMePhe(4-Cl)][Sar][hPhe(3-F,4-CF3)]))",< 6.30,6.68
CC[C@H](C)[C@@H]1NC(=O)[C@H](CC(C)C)N(C)C(=O)C[C@@H](C(=O)N2CCCCC2)N(C)C(=O)[C@H](C2CCCC2)N(C)C(=O)C2(CCCC2)NC(=O)[C@@H]2CCCN2C(=O)[C@H](CCc2ccc(C(F)(F)F)c(Cl)c2)NC(=O)CN(C)C(=O)[C@H](Cc2ccc(C)cc2)N(C)C(=O)[C@@H]2CCN2C(=O)[C@H](C)N(C)C1=O [Compound 1772] ([NMeL]I[NMeA][Aze][NMePhe(4-Me)][Sar][hPhe(3-Cl-4-CF3)]P[Ac5c][NMeGly(cPent)][NMeD]-Piperidide; lactam N-11),≥ 7.70,9.12
CCC[C@H]1C(=O)N[C@@H]([C@@H](C)CC)C(=O)N(C)CC(=O)N(C)CC(=O)N(C)[C@@H](CC2CCCCC2)C(=O)N(C)CC(=O)N[C@@H](CCc2ccc(C(F)(F)F)c(Cl)c2)C(=O)N2C[C@H](OCC)C[C@H]2C(=O)NC2(CCCC2)C(=O)N(C)[C@@H](C2CCCCC2)C(=O)N(C)[C@H](C(=O)N2CCCC2)CC(=O)N1C [Compound 1267] ([NMeNva]I[Sar][Sar][NMeCha][Sar][hPhe(3-Cl-4-CF3)][Hyp](Et)[Ac5c][NMeChg][NMeD]-Pyrrolidide; lactam N-11),≥ 7.70,9.44
CC[C@H](C)[C@@H]1NC(=O)[C@H](C)N(C)C(=O)C[C@@H](C)N(C)C(=O)[C@H](CC(C)C)NC(=O)C(C)(C)N(C)C(=O)[C@H](CC(C)C)NC(=O)[C@H](CCc2ccc(C(F)(F)F)c(Cl)c2)NC(=O)CN(C)C(=O)[C@H](Cc2ccc(C)cc2)N(C)C(=O)CN(C)C(=O)CN(C)C1=O [Compound 1398] (cyclo(I[Sar][Sar][NMePhe(4-Me)][Sar][hPhe(3-Cl-4-CF3)]L[NMeAib]L[NMedβ3hAla][NMeA])),< 6.30,8.18
CC[C@H](C)[C@@H]1NC(=O)[C@H](C)N(C)C(=O)C[C@@H](C(=O)N2CCCCC2)N(C)C(=O)[C@H](C2CCC2)N(C)C(=O)C2(CCCC2)NC(=O)CN(c2ccccc2)C(=O)[C@H](CCc2ccc(C(F)(F)F)c(Cl)c2)NC(=O)CN(C)C(=O)[C@H](CC2CCCCC2)N(C)C(=O)CN(C)C(=O)CN(C)C1=O [Compound 2151] ([NMeA]I[Sar][Sar][NMeCha][Sar][hPhe(3-Cl-4-CF3)][NPhGly][Ac5c][NMeGly(cBu)][NMeD]-Piperidide; lactam N-11),< 6.30,8.60
CC[C@H](C)[C@@H]1NC(=O)[C@H](CC(C)C)N(C)C(=O)C[C@@H](C(=O)N2C3CCC2COC3)NC(=O)[C@H](C(C)C)N(C)C(=O)C2(CCCC2)NC(=O)[C@@H]2CCCN2C(=O)[C@H](CCc2ccc(C(F)(F)F)c(Cl)c2)NC(=O)CN(C)C(=O)[C@H](CC2CCCCC2)N(C)C(=O)[C@@H]2CCN2C(=O)[C@H](C)N(C)C1=O [Compound 1214] ([NMeL]I[NMeA][Aze][NMeCha][Sar][hPhe(3-Cl-4-CF3)]P[Ac5c][NMeV]D-{3Oxa8azabicyclo(3.2.1)octane}; lactam N-11),< 6.30,7.11
CCO[C@@H]1C[C@H]2C(=O)NC3(CCCC3)C(=O)N(C)[C@@H](C3CCCC3)C(=O)N(C)[C@H](C)CC(=O)N(C)[C@@H](CC(C)C)C(=O)N[C@@H]([C@@H](C)CC)C(=O)N(C)[C@@H](C)C(=O)N3CC[C@H]3C(=O)N(CC)[C@@H](Cc3ccc(C(F)(F)F)cc3)C(=O)N(C)CC(=O)N[C@@H](CCc3ccc(C(F)(F)F)c(Cl)c3)C(=O)N2C1 [Compound 816] (cyclo([Ac5c][NMeGly(cPent)][NMedβ3hAla][NMeL]I[NMeA][Aze][NEtPhe(4-CF3)][Sar][hPhe(3-Cl-4-CF3)][Hyp](Et))),≥ 7.70,8.41
CC[C@H](C)[C@@H]1NC(=O)[C@H](CCS(C)(=O)=O)N(C)C(=O)C[C@@H](C(=O)N2CCCCC2)N(C)C(=O)[C@H](C(C)C)N(C)C(=O)C2(CCCC2)NC(=O)[C@@H]2CCCN2C(=O)[C@H](CCc2ccc(C(F)(F)F)c(Cl)c2)NC(=O)CN(C)C(=O)[C@H](CC2CCCCC2)N(C)C(=O)[C@@H]2CCN2C(=O)[C@H](C)N(C)C1=O [Compound 419] ([NMeMet(O2)]I[NMeA][Aze][NMeCha][Sar][hPhe(3-Cl-4-CF3)]P[Ac5c][NMeV][NMeD]-Piperidide; lactam N-11),< 6.30,8.62
CC[C@H](C)[C@@H]1NC(=O)[C@H](CC(C)C)N(C)C(=O)C[C@@H](C(=O)N(C)C)NC(=O)[C@H](C(C)C)N(C)C(=O)C2(CCCC2)NC(=O)[C@H](CC(=O)N2CCC(F)(F)CC2)N(C)C(=O)[C@H](CCc2ccc(C(F)(F)F)c(Cl)c2)NC(=O)CN(C)C(=O)[C@H](CC2CCCCC2)N(C)C(=O)CN(C)C(=O)CN(C)C1=O [Compound 97] ([NMeL]I[Sar][Sar][NMeCha][Sar][hPhe(3-Cl-4-CF3)][NMeD](N(CH2CH2)2CF2)[Ac5c][NMeV]D-NMe2; lactam N-11),< 6.30,7.40
CC[C@H](C)[C@@H]1NC(=O)[C@H](CC(C)C)N(C)C(=O)C[C@@H](C(=O)N(C)C)N(C)C(=O)[C@H](C2CCCC2)N(C)C(=O)C2(CCCC2)NC(=O)[C@@H]2CCCN2C(=O)[C@H](CCc2ccc(C(F)(F)F)c(Cl)c2)NC(=O)CN(C)C(=O)[C@H](Cc2ccc(C)cc2)N(CC)C(=O)[C@@H]2CCN2C(=O)[C@H](C)N(C)C1=O [Compound 279] ([NMeL]I[NMeA][Aze][NEtPhe(4-Me)][Sar][hPhe(3-Cl-4-CF3)]P[Ac5c][NMeGly(cPent)][NMeD]-NMe2; lactam N-11),≥ 7.70,9.00
"CCO[C@@H]1C[C@H]2C(=O)NC3(CCCC3)C(=O)N(C)[C@@H](C3CCCC3)C(=O)N(C)[C@H](C(=O)N(C)C)CSCC(=O)N(C)[C@@H](CC(C)C)C(=O)N[C@@H]([C@@H](C)CC)C(=O)N(C)[C@@H](C)C(=O)N3CC[C@H]3C(=O)N(C)[C@@H](CC3CCCCC3)C(=O)N(C)CC(=O)N[C@@H](CCc3cc(F)c(C(F)(F)F)c(F)c3)C(=O)N2C1 [Compound 2176, (3S,9S,12S,17S,20S,23S,29R,32S,38S,40R)-20-[(2S)-butan-2-yl]-9-(cyclohexylmethyl)-32-cyclopentyl-3-[2-[3,5-difluoro-4-(trifluoromethyl)phenyl]ethyl]-40-ethoxy-N,N,7,10,17,18,24,30,33-nonamethyl-23(2-methylpropyl)-2,5,8,11,16,19,22,25,31,34,37-undecaoxospiro[27-thia-1,4,7,10,15,18,21,24,30,33,36-undecazatricyclo[36.3.0.012,15]hentetracontane-35,1′-cyclopentane]-29-carboxamide] ({CH2CO}-[NMeL]I[NMeA][Aze][NMeCha][Sar][hPhe(3,5-F2-4-CF3)][Hyp](Et)[Ac5c][NMeGly(cPent)][NMeC]-NMe2; thioether N-11)",< 6.30,6.92
